Here are results for one molecule from patent US20060147923A1, “Nucleic acid sequences encoding novel point mutations on mglur2 and mglur3” (priority 2002, published 2006).

This experiment concerns the target T1, wild type mGluR2 (Homo sapiens, UniProt Q14416).
T1 construct: expressed in transfected cells; host or cells: HEK293 cells, transient lipid transfection (Effectene, MAGEC plate protocol)
Kind of experiment: Phosphoinositide hydrolysis, wild-type mGluR2 (FIG. 1). It is filed as cell-based. The conditions noted are these: HEK-293 cells transfected with wild-type mGluR2; 5 uM glutamate; normalized to 1 mM glutamate control. An excerpt:
For mGluR2 and mGluR3 mutants, the mGluR2/Gα16 nucleic acids are mixed with a lipid-based transfection reagent and are deposited into a well of a multi-well plate coated with fibronectin. The resulting DNA/lipid complexes are subsequently dried in vacuo then seeded with HEK293 cells. This is based on a method designated as MAGECTM, and disclosed in U.S. Provisional Application No. 60/372,476, filed Apr. 15, 2002, and titled, “Matrix Analyses of Gene Expression in Cells.”
11. Approximately forty hours after plating, the cells are analyzed in the phosphoinositide hydrolysis assay.
Phosphoinositide hydrolysis was determined by measuring the accumulation of tritiated inositol monophosphate ([^3H]-IP1) in the presence of LiCl. The method is taken from Berridge: Biochem J (1983) 212: 849-58. This determination provides for comparative data on the level of potentiation and loss of potentiation when testing a purported or known allosteric modulator in the presence of glutamate and either a wild-type mGluR2 or mGluR3 and at least one mutant of the respective mGluR2 or mGluR3.
1. HEK293 cells that were previously transiently transfected with hmGluR2 and Gα16 were labeled overnight with 1 μCi/well myo-[2-^3H]-inositol in a […] DMEM medium.
2. […]
12. The sample was quantified in a scintillation counter after a two-hour waiting period. […]

SMILES strings stand for the structures.

T1 sequence (Q14416 19-872): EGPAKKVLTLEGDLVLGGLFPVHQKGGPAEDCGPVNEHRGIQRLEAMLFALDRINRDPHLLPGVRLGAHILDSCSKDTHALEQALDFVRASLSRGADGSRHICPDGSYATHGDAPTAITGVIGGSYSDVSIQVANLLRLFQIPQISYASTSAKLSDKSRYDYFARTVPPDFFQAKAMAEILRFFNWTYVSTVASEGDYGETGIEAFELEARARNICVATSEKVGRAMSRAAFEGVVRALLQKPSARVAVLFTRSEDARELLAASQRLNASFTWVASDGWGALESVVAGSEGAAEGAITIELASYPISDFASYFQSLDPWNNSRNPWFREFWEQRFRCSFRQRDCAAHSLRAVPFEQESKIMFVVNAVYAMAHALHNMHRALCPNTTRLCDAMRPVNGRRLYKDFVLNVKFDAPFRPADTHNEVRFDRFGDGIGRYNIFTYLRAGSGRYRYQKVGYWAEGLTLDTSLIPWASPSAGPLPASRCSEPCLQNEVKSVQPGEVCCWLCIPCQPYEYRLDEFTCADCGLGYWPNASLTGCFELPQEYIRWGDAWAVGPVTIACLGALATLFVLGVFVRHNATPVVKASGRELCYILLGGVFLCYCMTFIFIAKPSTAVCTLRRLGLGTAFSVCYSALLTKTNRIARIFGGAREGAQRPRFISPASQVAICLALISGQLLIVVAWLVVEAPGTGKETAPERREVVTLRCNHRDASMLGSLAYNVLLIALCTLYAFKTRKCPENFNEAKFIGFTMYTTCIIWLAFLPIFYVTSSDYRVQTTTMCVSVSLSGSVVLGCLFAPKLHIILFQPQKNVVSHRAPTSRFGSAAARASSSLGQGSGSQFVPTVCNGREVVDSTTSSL

Consider `COc1ccccc1Oc1cccc(N(Cc2cccnc2)S(=O)(=O)CC(F)(F)F)c1` [Compound A], for which the “effect of modulator on response to glutamate, percent response compared to 1 mM glutamate positive control” value is given as “up-regulating the response of mGluR2”.
